According to PubChem BioAssay AID1259408 (Genetic Toxicology Data Bank (GENE-TOX), 2018):
The source made the active and inactive calls. The rule behind the calls is not given here.

Test system: GENE-TOX genotoxicity assays, various organisms and cells
Assay: GENE-TOX mutagenicity studies
Settings: for call: Assay Type: In vivo carcinogenicity studies
[1] = Species/Cell Type: Drosophila melanogaster, Assay Type: Sex-linked recessive lethal gene mutation, Assay Code: SRLT, Evaluation Type: Evaluation A (Pre-1980)
[2] = Species/Cell Type: Mammalian polychromatic erythrocytes, Assay Type: Micronucleus test, chromosome aberrations, Assay Code: MNT+, Evaluation Type: Evaluation B (Post-1980)
[3] = Species/Cell Type: Nonhuman, Assay Code: CCG+, Evaluation Type: Evaluation A (Pre-1980)
[4] = Species/Cell Type: Salmonella typhimurium (one or more of the five standard strains: TA98, TA100, TA1535, TA1537, and TA1538), Assay Type: Histidine reverse gene mutation, Ames assay, Assay Code: SAL+*, Activation: With metabolic activation, Evaluation Type: Evaluation A (Pre-1980)
[5] = Species/Cell Type: Bacillus subtilis (H17 vs M45), Assay Type: Rec-assay, spot test, DNA effects (bacterial DNA repair), Assay Code: REWT, Evaluation Type: Evaluation A (Pre-1980)
[6] = Species/Cell Type: Escherichia coli WP2 UVRA, Assay Type: Tryptophan reverse gene mutation, Assay Code: WPU-*, Activation: With metabolic activation, Evaluation Type: Evaluation A (Pre-1980)
[7] = Species/Cell Type: Escherichia coli polA (W3119 vs P3478), Assay Type: Rec-assay, DNA effects (bacterial DNA repair), Assay Code: RE1T, Evaluation Type: Evaluation A (Pre-1980)
[8] = Species/Cell Type: Human diploid fibroblasts, Assay Type: Unscheduled DNA synthesis (UDS) in vitro, DNA effects, Assay Code: UDH-, Evaluation Type: Evaluation A (Pre-1980)
[9] = Species/Cell Type: Saccharomyces cerevisiae, Assay Type: Mitotic recombination or gene conversion, Assay Code: YEH-, Evaluation Type: Evaluation A (Pre-1980)
[10] = Species/Cell Type: Mammalian polychromatic erythrocytes, Assay Type: Micronucleus test, chromosome aberrations, Assay Code: MNTT, Evaluation Type: Evaluation B (Post-1980)
[11] = Species/Cell Type: Salmonella typhimurium (one or more of the five standard strains: TA98, TA100, TA1535, TA1537, and TA1538), Assay Type: Histidine reverse gene mutation, Ames assay, Assay Code: SAL-, Evaluation Type: Evaluation A (Pre-1980)
[12] = Species/Cell Type: Nonhuman, Assay Type: Sister-chromatid exchange (SCE) in vitro, Assay Code: SC2+D, Dose Response: With dose response, Evaluation Type: Evaluation B (Post-1980)
[13] = Species/Cell Type: Chinese hamster lung (V79) cells, Assay Type: Forward gene mutation at the HPRT or ouabain locus, Assay Code: V79+, Evaluation Type: Evaluation A (Pre-1980)
[14] = Species/Cell Type: Salmonella typhimurium (one or more of the five standard strains: TA98, TA100, TA1535, TA1537, and TA1538), Assay Type: Histidine reverse gene mutation, Ames assay, Assay Code: SAL+, Evaluation Type: Evaluation A (Pre-1980)
[15] = Species/Cell Type: Human lymphocytes, Assay Type: Sister-chromatid exchange (SCE) in vitro, Assay Code: SCL+D, Dose Response: With dose response, Evaluation Type: Evaluation B (Post-1980)
[16] = Species/Cell Type: Human, Assay Type: Sister-chromatid exchange (SCE) in vitro, Assay Code: SC1+D, Dose Response: With dose response, Evaluation Type: Evaluation B (Post-1980)
[17] = Species/Cell Type: Salmonella typhimurium (one or more of the five standard strains: TA98, TA100, TA1535, TA1537, and TA1538), Assay Type: Histidine reverse gene mutation, Ames assay, Assay Code: SALT, Evaluation Type: Evaluation A (Pre-1980)

Which mutagenic call (Species/Cell Type: Drosophila melanogaster, Assay Type: Aneuploidy, sex chromosome gain, chromosome aberrations, Assay Code: DAGT, Evaluation Type: Evaluation A (Pre-1980)) does the source give for `CC(N)Cc1ccccc1` (configuration not stated) here?
Its mutagenic call is “no conclusion”.

And the mutagenic call (Species/Cell Type: Drosophila melanogaster, Assay Type: Aneuploidy, whole sex chromosome loss, chromosome aberrations, Assay Code: DACT, Evaluation Type: Evaluation A (Pre-1980))?
Its mutagenic call is “no conclusion”.

And the mutagenic call [1]?
Its mutagenic call is “no conclusion”.

And the mutagenic call [2]?
Its mutagenic call is “active; positive”.

For `CC(=O)[O-].CC(=O)[O-].CC(=O)[O-].CC(=O)[O-].[Pb+2]`, which call [3] is on record?
The call was “active; positive”.

What does the source list for `c1ccc2c(c1)ccc1nc3ccc4ccccc4c3cc12`?
mutagenic call (Species/Cell Type: Fischer rat embryo (RLV/1706) cells, Assay Type: Cell transformation, viral enhanced, Assay Code: CTR+, Evaluation Type: Evaluation A (Pre-1980)): active; positive; call [3]: active; positive; mutagenic call [4]: active; positive

How did the mutagenic call (Species/Cell Type: Drosophila melanogaster, Assay Type: Sex-linked recessive lethal gene mutation, Assay Code: SRL+, Evaluation Type: Evaluation A (Pre-1980)) turn out when `CC1CN1P(=O)(Cc1ccccc1)N1CC1C` (configuration not stated) was run?
Its mutagenic call is “active; positive”.

Which mutagenic call [5] does the source give for `CN(C)C(=O)Nc1ccc(Cl)cc1` here?
The mutagenic call was “no conclusion”.

What about the mutagenic call [1] of the same molecule?
Its mutagenic call is “no conclusion”.

And the mutagenic call [6]?
The mutagenic call was “inactive; negative”.

What about the mutagenic call [7] of the same molecule?
Its mutagenic call is “no conclusion”.

What about the mutagenic call (Species/Cell Type: Hordeum vulgare (barley), Assay Type: Chromosome aberrations, Assay Code: HOC+, Evaluation Type: Evaluation A (Pre-1980)) of the same molecule?
The mutagenic call was “active; positive”.

What about the mutagenic call [8] of the same molecule?
The mutagenic call was “inactive; negative”.

And the call (Species/Cell Type: Nonhuman, Assay Code: CCG+L, Evaluation Type: Evaluation A (Pre-1980))?
Its call is “active; positive”.

What about the mutagenic call [9] of the same molecule?
The mutagenic call was “inactive; negative”.

Which mutagenic call [10] does the source give for `CC(S)C(=O)NCC(=O)O` (configuration not stated) here?
Its mutagenic call is “no conclusion”.

With `O=C1NC(=O)C(c2ccccc2)(c2ccccc2)N1` as the molecule, how does the mutagenic call (Species/Cell Type: Human lymphocytes, Assay Type: Sister-chromatid exchange (SCE) in vivo, Assay Code: SCY+, Evaluation Type: Evaluation B (Post-1980)) read?
The mutagenic call was “active; positive”.

What about the mutagenic call (Species/Cell Type: Human, Sex: Male, Assay Type: Sperm morphology, Assay Code: SPHT, Evaluation Type: Evaluation A (Pre-1980)) of the same molecule?
Its mutagenic call is “no conclusion”.

What about the mutagenic call [2] of the same molecule?
The mutagenic call was “active; positive”.

What about the mutagenic call [10] of the same molecule?
Its mutagenic call is “no conclusion”.

What about the mutagenic call (Species/Cell Type: Nonhuman, Assay Type: Sister-chromatid exchange (SCE) in vivo, Assay Code: SC3+, Evaluation Type: Evaluation B (Post-1980)) of the same molecule?
Its mutagenic call is “active; positive”.

Which results are given for `O=[N+]([O-])c1ccc(Oc2ccc(Cl)cc2Cl)cc1`?
mutagenic call (Species/Cell Type: Mammalian polychromatic erythrocytes, Assay Type: Micronucleus test, chromosome aberrations, Assay Code: MNTT, Evaluation Type: Evaluation A (Pre-1980)): no conclusion; call [3]: active; positive

With `CC1CCCCC1NC(=O)Nc1ccccc1` (configuration not stated) as the molecule, how does the mutagenic call [5] read?
The mutagenic call was “no conclusion”.

What about the mutagenic call (Species/Cell Type: Drosophila melanogaster, Assay Type: Sex-linked recessive lethal gene mutation, Assay Code: SRL-, Evaluation Type: Evaluation A (Pre-1980)) of the same molecule?
The mutagenic call was “inactive; negative”.

What about the mutagenic call [6] of the same molecule?
Its mutagenic call is “inactive; negative”.

And the mutagenic call [7]?
Its mutagenic call is “no conclusion”.

What about the mutagenic call [8] of the same molecule?
The mutagenic call was “inactive; negative”.

And the mutagenic call [9]?
Its mutagenic call is “inactive; negative”.

What about the mutagenic call [11] of the same molecule?
The mutagenic call was “inactive; negative”.

Which results are given for `CCOC(=O)CC(SP(=O)(OC)OC)C(=O)OCC` (configuration not stated)?
call (Species/Cell Type: Nonhuman, Assay Code: CCG-, Evaluation Type: Evaluation A (Pre-1980)): inactive; negative; mutagenic call [12]: active; positive

With `O[C@@H]1[C@@H]2O[C@@H]2c2cc3c(ccc4ccccc43)cc2[C@H]1O` as the molecule, how does the mutagenic call [13] read?
Its mutagenic call is “active; positive”.

What about the mutagenic call [14] of the same molecule?
Its mutagenic call is “active; positive”.

Which mutagenic call (Species/Cell Type: Glycine max (soybean), Assay Type: Gene mutation, Assay Code: GLM-, Evaluation Type: Evaluation A (Pre-1980)) does the source give for `O=Nc1c(O)c(S(=O)(=O)O)cc2cc(S(=O)(=O)O)ccc12` here?
Its mutagenic call is “inactive; negative”.

For `COc1cccc2c1cc([N+](=O)[O-])c1c(C(=O)O)cc3c(c12)OCO3`, which mutagenic call [15] is on record?
The mutagenic call was “active; positive”.

What about the mutagenic call [16] of the same molecule?
The mutagenic call was “active; positive”.

Which call [3] does the source give for `O=[N+]([O-])c1ccc2c3c(cccc13)CC2` here?
Its call is “active; positive”.

What about the mutagenic call [14] of the same molecule?
The mutagenic call was “active; positive”.

Which mutagenic call (Species/Cell Type: Neurospora crassa, Assay Type: Forward gene mutation, Assay Code: NEF+, Evaluation Type: Evaluation A (Pre-1980)) does the source give for `CN(N=O)C(=O)Nc1nc2ccccc2s1` here?
Its mutagenic call is “active; positive”.

What about the mutagenic call (Species/Cell Type: Saccharomyces cerevisiae, Assay Type: Mitotic recombination or gene conversion, Assay Code: YEC+, Evaluation Type: Evaluation A (Pre-1980)) of the same molecule?
Its mutagenic call is “active; positive”.

Which mutagenic call [17] does the source give for `C[C@]12CCC[C@H](O1)c1c(cc3c(c1O)C(=O)c1c(O)cc(O)cc1C3=O)O2` here?
The mutagenic call was “no conclusion”.

Which results are given for `CCCCCCCCCCCCCC(=O)O[C@@H]1[C@@H](C)[C@@]2(O)[C@@H](C=C(CO)C[C@]3(O)C(=O)C(C)=C[C@@H]23)[C@@H]2C(C)(C)[C@]12OC(C)=O`?
mutagenic call (Species/Cell Type: Chinese hamster lung (V79) cells, Assay Type: Forward gene mutation at the HPRT or ouabain locus, Assay Code: V79-, Evaluation Type: Evaluation A (Pre-1980)): inactive; negative; mutagenic call [7]: no conclusion; mutagenic call (Species/Cell Type: Fischer rat embryo (RLV/1706) cells, Assay Type: Cell transformation, viral enhanced, Assay Code: CTR-, Evaluation Type: Evaluation A (Pre-1980)): inactive; negative; mutagenic call (Species/Cell Type: Human, Assay Type: Sister-chromatid exchange (SCE) in vitro, Assay Code: SC1+, Evaluation Type: Evaluation B (Post-1980)): active; positive; mutagenic call (Species/Cell Type: Mouse (C3H/10T1/2) cells, Assay Type: Cell transformation, Assay Code: CTH-, Evaluation Type: Evaluation A (Pre-1980)): inactive; negative; mutagenic call (Species/Cell Type: Nonhuman, Assay Type: Sister-chromatid exchange (SCE) in vitro, Assay Code: SC2+, Evaluation Type: Evaluation A (Pre-1980)): active; positive; mutagenic call (Species/Cell Type: Nonhuman, Assay Type: Sister-chromatid exchange (SCE) in vitro, Assay Code: SC2T, Evaluation Type: Evaluation B (Post-1980)): no conclusion; mutagenic call [9]: inactive; negative; mutagenic call [11]: inactive; negative; mutagenic call (Species/Cell Type: Syrian hamster embryo (SHE) cells, Assay Type: Cell transformation, clonal assay, Assay Code: CTC-, Evaluation Type: Evaluation A (Pre-1980)): inactive; negative

For `CC1=CCCc2c1cc(C)c1c2ccc2ccccc21`, which mutagenic call [4] is on record?
The mutagenic call was “active; positive”.

Which mutagenic call [13] does the source give for `c1ccc2c(c1)cc1c3c2ccc2cccc(c23)C2OC12` (configuration not stated) here?
Its mutagenic call is “active; positive”.

And the mutagenic call (Species/Cell Type: Human diploid fibroblasts, Assay Type: Unscheduled DNA synthesis (UDS) in vitro, DNA effects, Assay Code: UDH+, Evaluation Type: Evaluation A (Pre-1980))?
Its mutagenic call is “active; positive”.

What about the mutagenic call [16] of the same molecule?
Its mutagenic call is “active; positive”.

What about the mutagenic call (Species/Cell Type: Mouse prostate cells, Assay Type: Cell transformation, Assay Code: CTM+, Evaluation Type: Evaluation A (Pre-1980)) of the same molecule?
Its mutagenic call is “active; positive”.

And the call (Species/Cell Type: Nonhuman, Assay Code: CCGT, Evaluation Type: Evaluation A (Pre-1980))?
The call was “no conclusion”.

And the mutagenic call [12]?
Its mutagenic call is “active; positive”.

And the mutagenic call (Species/Cell Type: Saccharomyces cerevisiae, Assay Type: Mitotic recombination or gene conversion, Assay Code: YEH+, Evaluation Type: Evaluation A (Pre-1980))?
Its mutagenic call is “active; positive”.

And the mutagenic call [14]?
Its mutagenic call is “active; positive”.

And the mutagenic call (Species/Cell Type: Syrian hamster embryo (SHE) cells, Assay Type: Cell transformation, clonal assay, Assay Code: CTC+, Evaluation Type: Evaluation A (Pre-1980))?
The mutagenic call was “active; positive”.

Which results are given for `C=C[C@H]1CN2CC[C@H]1C[C@H]2[C@H](O)c1ccnc2ccc(OC)cc12`?
mutagenic call (Species/Cell Type: Mammalian polychromatic erythrocytes, Assay Type: Micronucleus test, chromosome aberrations, Assay Code: MNT+U, Dose Response: Unconfirmed positive response, Evaluation Type: Evaluation B (Post-1980)): active; positive; mutagenic call (Species/Cell Type: Nonhuman, Assay Type: Sister-chromatid exchange (SCE) in vivo, Assay Code: SC3+D, Dose Response: With dose response, Evaluation Type: Evaluation B (Post-1980)): active; positive

Which mutagenic call (Species/Cell Type: Allium cepa, Assay Type: Chromosome aberrations, Assay Code: ALCT, Evaluation Type: Evaluation A (Pre-1980)) does the source give for `Oc1cc(O)c2ccccc2c1` here?
Its mutagenic call is “no conclusion”.

`OCCN(CCO)CCO` was tested. Which mutagenic call (Species/Cell Type: Allium cepa, Assay Type: Chromosome aberrations, Assay Code: ALC+D, Dose Response: With dose response, Evaluation Type: Evaluation A (Pre-1980)) did it give?
Its mutagenic call is “active; positive”.

Which mutagenic call (Species/Cell Type: Nonhuman, Assay Type: Sister-chromatid exchange (SCE) in vitro, Assay Code: SC2+, Evaluation Type: Evaluation B (Post-1980)) does the source give for `CN=[N+]([O-])Cc1ccc(C(=O)NC(C)C)cc1` here?
Its mutagenic call is “active; positive”.

Which results are given for `C=Cc1ccc(C)cc1`?
mutagenic call [15]: active; positive; mutagenic call [16]: active; positive

For `COc1ccc2c(ccc3c4c(ccc32)C(=O)CC4)c1`, which mutagenic call [17] is on record?
Its mutagenic call is “no conclusion”.
